Laboratory results published in patent US20090075898A1, “Complement C3A Derived Peptides and Uses Thereof” (Yeda Research and Development Co. Ltd. at the Weizmann …, priority 2005, published 2009).
Square brackets hold non-standard residues; d marks the D form. Ends that are not written are not given here.

Columns and labels:
[1] = system: RBL-2H3 cells; details: for Inhibition of IgE-mediated β-hexosaminidase release from RBL-2H3 cells: peptides 5 min prior to suboptimal (5 ng/ml) antigen dose; for Inhibition of IgE-mediated β-hexoseaminidase secretion from RBL-2H3 (FIG. 1B): 250 μg of peptide
[2] = system: bone marrow derived mast cells (BMMC); assay: Secretory response (β-hexosaminidase release) of bone marrow derived mast cells; assay type: cell-based, mouse
Method: Cells. Bone marrow derived mast cells (BMMC) were prepared from Balb/c mice as described by Nagao et al. (Science 212: 333-335, 1981). After 3 weeks, an approximately 95% pure mast cell population was obtained, showing high expression of FcεRI and stem cell factor receptor (c-kit), as measured by flow cytometry.
Secretory response of mast cells.
Similar experiments were carried out using bone-marrow derived mast cells (BMMC). […] The control peptide of the sequence DVSNYITR had no effect on either system.

[3] = system: Lyn; assay: Phosphorylation of Lyn in RBL-2H3 cells, Western blot; assay type: cell-based, rat; details: for Phosphorylation of Lyn: cells stimulated by antigen in the presence of peptide
Method: Immunoprecipitation and Western blot. Mast cells were seeded in 10 cm Petri dishes (7×10^6 cells/dish) and saturated with A2IgE at 37° C. in DMEM overnight. […] The reaction was terminated by 500 μl lysis buffer (1% Triton X-100, 50 mM HEPES, 100 mM NaF, 10 mM EDTA, 2 mM sodium orthovanadate, 10% glycerol, 10 mM sodium pyrophosphate, protease inhibitor cocktail 1:200, pH 7.4) per dish. The cells were scraped and the protein content of the post nuclear supernatants was adjusted to equal values using the Bradford-assay prior to precipitation by PT-66 phosphotyrosine specific antibody coated beads (10 μl beads per sample). The proteins were eluted by sample buffer containing 2-mercaptoethanol and were separated by SDS-PAGE, electrotransferred onto a nitrocellulose membrane and developed using the indicated antibodies and detected by ECL.
(§1) These are known to include phosphorylation by the src-family PTK Lyn of the ITAMs of the FcεRI β and γ subunits.
(§2) The inhibitory action of the peptide C3a31 on the FcεRI coupling cascade was also investigated using the rat mucosal-type RBL-2H3 line.

[4] = system: passive systemic anaphylaxis in mice; assay: Passive systemic anaphylaxis, blood histamine; assay type: in vivo, mouse; details: peptide solution onto the nostrils before DNP-HSA antigen
Method: Passive Systemic Anaphylaxis. Mice (Balb/c) were anesthetized with 300-400 μl of avertin and injected with 3 μg of the IgE class DNP-specific monoclonal antibody (SPE-7, Sigma) in 200 μl PBS by retroorbital injection (or tail vein). After 24 hours, mice were anesthetized with 300-400 μl of avertin and exposed to ca. 100 μl of the indicated peptide (inhibitory, SEQ ID NO:11, a control reversed peptide of SEQ ID NO:35 or peptide GAKDGNEYI-COOH of SEQ ID NO:36) solution in PBS positioned onto the nostrils. This was followed by injection of the antigen (DNP-derivatized human serum albumin, HSA, 100 μg in 200 μl of PBS) or PBS only, by retroorbital injection (or tail vein). After 1.5 minutes, mice were sacrificed by cervical dislocation and cardiac puncture performed. Heparin-rinsed syringes were now used for aspiration. Blood samples were spun at 4 degrees for 10 minutes at 8000 rpm in tabletop. Histamine was assayed by the Immunotech protocol for competitive ALP assay.
The effect of C3a derived peptides on passive systemic anaphylaxis in mice was examined. […] The reverse peptide denoted C3a55 amide was ineffective (FIG. 5). A control group was treated with a non-relevant peptide having the amino acid sequence GAKDGNEYI-COOH of SEQ ID NO:36 prior to the injection of the antigen DNP-HSA.

[5] = system: FcεRI β chain; assay: Phosphorylation of FcεRI β chain in RBL-2H3 cells, Western blot; assay type: cell-based, rat; details: cells stimulated by antigen in the presence of peptide
Method: Immunoprecipitation and Western blot. Mast cells were seeded in 10 cm Petri dishes (7×10^6 cells/dish) and saturated with A2IgE at 37° C. in DMEM overnight. After washing they were treated with peptides for 5 min and FcεRI was clustered by incubating with 5 ng/ml DNP11-BSA at 37° C. for 2 min. The reaction was terminated by 500 μl lysis buffer (1% Triton X-100, 50 mM HEPES, 100 mM NaF, 10 mM EDTA, 2 mM sodium orthovanadate, 10% glycerol, 10 mM sodium pyrophosphate, protease inhibitor cocktail 1:200, pH 7.4) per dish. The cells were scraped and the protein content of the post nuclear supernatants was adjusted to equal values using the Bradford-assay prior to precipitation by PT-66 phosphotyrosine specific antibody coated beads (10 μl beads per sample). The proteins were eluted by sample buffer containing 2-mercaptoethanol and were separated by SDS-PAGE, electrotransferred onto a nitrocellulose membrane and developed using the indicated antibodies and detected by ECL.
as §1, §2

[6] = system: PAG; assay: PAG phosphorylation in RBL-2H3 cells; assay type: cell-based, rat
Method: (§3) The inhibitory action of the peptide C3a31 on the FcεRI coupling cascade was also investigated using the rat mucosal-type RBL-2H3 line. Results of these experiments have shown that peptide C3a31 inhibited the phosphorylation of the protein tyrosine kinase Lyn and of the FcεRI β-chain. The inhibition on Lyn phosphorylation was observed after 1 min, and that on PAG phosphorylation (PAG has an important role in the regulation of src family kinases) after 3 min. However, C3a31 was also shown to enhance Lyn phosphorylation after 3 min. In addition, C3a31 inhibited Dok-1 phosphorylation after 5 min, but had no effect after 8 min.

[7] = system: Dok-1; assay: Dok-1 phosphorylation in RBL-2H3 cells; assay type: cell-based, rat
Method: as §3

[8] = system: PLCγ-2; assay: PLCγ-2 phosphorylation in RBL-2H3 cells; assay type: cell-based, rat
[9] = system: ovalbumin-sensitized asthmatic mice; assay: Murine asthma model, lung function by plethysmography; assay type: in vivo, mouse; details: peptide aerosol prior to final ovalbumin challenge
Method: (§4) Inhibitory effect of the peptides on pulmonary functions. Mice (Balb/c, female, 8 weeks old) were first sensitized by ip injection of the antigen (Ag) ovalbumin. Thereafter, the mice were challenged 4 times by aerosol inhalation of the same Ag dispersed by nebulizer in a plexiglass chamber for about 20 min at one-week intervals. On day 28, the mice were first treated with an aerosol of the tested peptides dissolved in 0.1 M NaHCO3 and dispersed as above. As a result, the aerosol was inhaled by the animals for about 10 to 20 minutes. After inhalation, the animals were immediately challenged by inhalation (as above) of the sensitizing antigen (5% OVA in PBS) for 20 min. At the end of this treatment, the mice were immediately tested for pulmonary functions in conscious, freely moving state using plethysmography.
The degree of bronchial constriction was monitored by the enhanced pause and its relation to airway resistance, impedance and intrapleural pressure in the mouse. Bronchoalveolar lavage (BAL) samples were obtained from these mice by cannulating the trachea, injecting 0.8 ml ice-cold saline (×2) and subsequently aspirating the BAL fluid. Following these tests, mice were sacrificed using general anesthesia with brevital (1 mg/ml). Their chests wall were opened, blood withdrawn and lungs were perfused with cold PBS and examined for cytology and histology. […]

[10] = system: ovalbumin-sensitized asthmatic mice; assay: Murine asthma model, cell distribution in broncho alveolar lavage; assay type: in vivo, mouse
Method: as §4
The degree of bronchial constriction was monitored by the enhanced pause and its relation to airway resistance, impedance and intrapleural pressure in the mouse. Bronchoalveolar lavage (BAL) samples were obtained from these mice by cannulating the trachea, injecting 0.8 ml ice-cold saline (×2) and subsequently aspirating the BAL fluid. Following these tests, mice were sacrificed using general anesthesia with brevital (1 mg/ml). Their chests wall were opened, blood withdrawn and lungs were perfused with cold PBS and examined for cytology and histology.
Table 3 provides results of analysis of the cells present in bronchi alveolar lavage (BAL) of mice treated by the same protocols as those subjected to analysis of lung function.

CCNYG (derived from human sequence) [C3a13]
Inhibition of IgE-mediated β-hexosaminidase release from RBL-2H3 cells [1]: shown to inhibit

D-Ala-D-Ala-Asp-Ser-Ser-Asn-Tyr-Ile-Thr-Arg-NH2 ([dA][dA]DSSNYITR-NH2; N-terminus assumed; SMILES CC[C@H](C)[C@H](NC(=O)[C@H](Cc1ccc(O)cc1)NC(=O)[C@H](CC(N)=O)NC(=O)[C@H](CO)NC(=O)[C@H](CO)NC(=O)[C@H](CC(=O)O)NC(=O)[C@@H](C)NC(=O)[C@@H](C)N)C(=O)N[C@H](C(=O)N[C@@H](CCCNC(=N)N)C(N)=O)[C@@H](C)O) [C3a32]
Inhibition of IgE-mediated β-hexoseaminidase secretion from RBL-2H3 (FIG. 1B) [1]: found to inhibit

DSSNYIR [C3a11]
Inhibition of IgE-mediated β-hexosaminidase release from RBL-2H3 cells [1]: shown to inhibit

DVSNYITR [Control peptide, reference compound]
Inhibition of IgE-mediated secretory response of BMMC [2]: had no effect | Inhibitory effect (IC50) on the IgE-mediated degranulation of BMMC ([2]; suboptimal antigen-dose): No effect | Phosphorylation of Lyn [3]: had no effect | Inhibition of IgE-mediated β-hexosaminidase release from RBL-2H3 cells [1]: had no effect | Inhibitory effect (IC50) on the IgE-mediated degranulation of RBL-2H3 ([1]; suboptimal antigen-dose): No effect

RTIYNSSDS (RTIYNSSDS-NH2) [C3a55, reference compound]
Symptoms of passive systemic anaphylaxis, histamine levels in mice blood [4]: ineffective

Ser-Asp-Ser-Ser-Asn-Tyr-Ile-Thr-Arg-NH2 (SDSSNYITR-NH2) [C3a31]
Lyn phosphorylation after 1 min ([3]; after 1 min): inhibition | Lyn phosphorylation after 3 min ([3]; after 3 min): enhance | Phosphorylation of Lyn [3]: inhibited | Phosphorylation of the FcεRI β chain [5]: inhibited | PAG phosphorylation after 3 min [6]: inhibition | Dok-1 phosphorylation after 5 min ([7]; after 5 min): inhibited | Dok-1 phosphorylation after 8 min ([7]; after 8 min): had no effect | Phosphorylation of PLCγ-2 [8]: inhibited | Symptoms of passive systemic anaphylaxis, histamine levels in mice blood [4]: found to reduce | Antigen-induced symptoms (lung airway resistance) in asthma model [9]: effective in reducing | Eosinophils in BAL ([10]; OVA + peptide aerosol): 4% | Lymphocutes in BAL ([10]; OVA + peptide aerosol): 81% | Macrophages in BAL ([10]; OVA + peptide aerosol): 1% | Mast Cells in BAL ([10]; OVA + peptide aerosol): 4% | Neutrophils in BAL ([10]; OVA + peptide aerosol): 13% | Type of cells detected in the BAL ([10]; peptide aerosol treatment): markedly affected | Inhibition of IgE-mediated β-hexoseaminidase secretion from RBL-2H3 (FIG. 1B) [1]: found to inhibit
